This note sets out measurements from patent EP1140919B1, “1,4-DISUBSTITUTED CYCLOHEXANE DERIVATIVES FOR THE TREATMENT OF DEPRESSION” (Wyeth, priority 1999, dated 2000).

Assay [1] deals with T1, serotonin transporter (Rattus norvegicus, UniProt P31652).
T1 construct: frontal cortical membranes prepared from male Sprague-Dawley rats; from tissue; host or cells: frontal cortex of male Sprague-Dawley rats (membranes)
Nature of the assay: Serotonin transporter binding assay with 3H-paroxetine on frontal cortical membranes. Also on record: species or system male Sprague-Dawley rats. The protocol: A protocol similar to that used by Cheetham et al., Neuropharmacol., 32:737 (1993) was used to determine the affinity of compounds for the serotonin transporter. Briefly, frontal cortical membranes prepared from male Sprague-Dawley rats were incubated with ^3H-paroxetine (0.1 nM) for 60 min at 25°C. All tubes also contained either vehicle, test compound (one to eight concentrations), or a saturating concentration of fluoxetine (10 µM) to define […]. All reactions were terminated by the addition of ice cold Tris buffer followed by rapid filtration using a Tom Tech filtration device to separate bound from free ^3H-paroxetine. Bound radioactivity was quantitated using a Wallac 1205 Beta Plate® counter. Nonlinear regression analysis was used to determine IC50 values which were converted to Ki values using the method set forth in Cheng and Prusoff, Biochem. Pharmacol., 22:3099 (1973) ([…].

Assay [2] addresses T2, human 5-HT1A receptor (Homo sapiens, UniProt P08908).
T2 construct: expressed in transfected cells
T2 sequence (P08908 1-422): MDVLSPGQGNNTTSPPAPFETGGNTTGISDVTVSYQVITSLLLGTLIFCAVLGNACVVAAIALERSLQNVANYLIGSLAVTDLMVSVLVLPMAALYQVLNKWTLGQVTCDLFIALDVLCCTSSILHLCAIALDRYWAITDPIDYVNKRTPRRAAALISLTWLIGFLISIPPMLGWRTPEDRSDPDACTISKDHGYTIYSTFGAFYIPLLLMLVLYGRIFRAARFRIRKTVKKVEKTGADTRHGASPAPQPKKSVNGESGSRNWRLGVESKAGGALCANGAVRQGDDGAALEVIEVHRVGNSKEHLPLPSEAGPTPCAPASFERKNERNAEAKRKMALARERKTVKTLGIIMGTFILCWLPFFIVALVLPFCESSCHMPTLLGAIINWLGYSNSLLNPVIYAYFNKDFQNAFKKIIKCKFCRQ
Nature of the assay: 5-HT1A receptor binding assay with [3H]8-OH-DPAT on CHO cell membranes. The note with it: @ 1000 nM, 5-HT1A.CHO cell membranes. As to the method:
The PCR cloning of the human 5-HT1A receptor subtype from a human genomic library has been described previously by Chanda et al., Mol. Pharmacol., 43:516 (1993). A stable Chinese hamster ovary cell line expressing the human 5-HT1A receptor subtype (5-HT1A.CHO cells) was employed throughout this study. Cells were maintained in DMEM supplemented with 10% fetal calf serum, non-essential amino acids and penicillin/ streptomycin.
Cells were grown to 95-100% confluency as a monolayer before membranes were harvested for binding studies. Cells were gently scraped from the culture plates, transferred to centrifuge tubes, and washed twice by centrifugation (2000 rpm for 10 min., 4°C) in buffer (50 mM Tris; pH 7.5). The resulting pellets were aliquoted and maintained at -80•C. On the day of assay, the cells were thawed on ice, and resuspended in buffer. Studies were conducted using [^3H]8-OH-DPAT as the radioligand. The binding assay was performed in 96 well microtiter plates in a final total volume of 250 µL of buffer. Comparison experiments werc performed by using 7 concentrations of unlabelled drug and a final ligand concentration of 1.5 nM. Nonspecific binding was determined in the presence of 10 µM 5HT. Saturation analysis was conducted by using [^3H]8-OH-DPAT at concentrations ranging from 0.3-30 nM. […]

T1 sequence (P31652 whole entry): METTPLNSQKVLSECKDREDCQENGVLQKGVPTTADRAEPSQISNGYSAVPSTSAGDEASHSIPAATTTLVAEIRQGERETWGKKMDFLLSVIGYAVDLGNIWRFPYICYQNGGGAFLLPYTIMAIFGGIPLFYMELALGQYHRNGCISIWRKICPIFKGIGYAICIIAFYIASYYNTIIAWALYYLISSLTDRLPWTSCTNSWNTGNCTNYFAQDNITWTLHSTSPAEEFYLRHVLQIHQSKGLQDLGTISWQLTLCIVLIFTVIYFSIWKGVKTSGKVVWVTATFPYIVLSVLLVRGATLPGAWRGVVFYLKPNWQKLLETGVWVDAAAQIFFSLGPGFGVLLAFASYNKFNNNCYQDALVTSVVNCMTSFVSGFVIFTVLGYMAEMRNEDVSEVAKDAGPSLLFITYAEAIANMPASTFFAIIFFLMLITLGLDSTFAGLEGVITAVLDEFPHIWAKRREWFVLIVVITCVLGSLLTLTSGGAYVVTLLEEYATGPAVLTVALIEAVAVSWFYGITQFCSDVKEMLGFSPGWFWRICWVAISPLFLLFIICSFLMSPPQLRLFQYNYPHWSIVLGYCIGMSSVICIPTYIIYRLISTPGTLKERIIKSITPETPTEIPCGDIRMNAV

The compound `COc1ccsc1C1=CCN([C@H]2CC[C@@H](c3c[nH]c4ccc(F)cc43)CC2)CC1` [Example 1, 5-Fluoro-3-{(1,4-cis)-4-[4-(3-methoxy-thiophen-2-yl)-3,6-dihydro-2H-pyridin-1-yl]-cyclohexyl}-1H-indole] came in with a Ki in assay [1] of 2.5 nM. In assay [2], the “5-HT1A (Ki, nM)” value was found to be 48% @ 1000 nM.

On to `COc1ccsc1C1=CCN([C@H]2CC[C@H](c3c[nH]c4ccc(F)cc43)CC2)CC1` [Example 2, 5-Fluoro-3-{(1,4-trans)-4-[4-(3-methoxy-thiophen-2-yl)-3,6-dihydro-2H-pyridin-1-yl]-cyclohexyl}-1H-indole], for which, in assay [1] (@ 100 nM, 3H-paroxetine, rat frontal cortical membranes), the “ST (Ki, nM,)” value is listed as 18% @ 100 nM.
